Here are results for 27 molecules from patent US20230167073A1 (Teijin Pharma Limited, priority 2020, published 2023).

The experiment deals with T1, Human TRPC6 (Homo sapiens, UniProt Q9Y210).
T1 construct: expressed in transfected cells
T1 sequence (Q9Y210 1-931): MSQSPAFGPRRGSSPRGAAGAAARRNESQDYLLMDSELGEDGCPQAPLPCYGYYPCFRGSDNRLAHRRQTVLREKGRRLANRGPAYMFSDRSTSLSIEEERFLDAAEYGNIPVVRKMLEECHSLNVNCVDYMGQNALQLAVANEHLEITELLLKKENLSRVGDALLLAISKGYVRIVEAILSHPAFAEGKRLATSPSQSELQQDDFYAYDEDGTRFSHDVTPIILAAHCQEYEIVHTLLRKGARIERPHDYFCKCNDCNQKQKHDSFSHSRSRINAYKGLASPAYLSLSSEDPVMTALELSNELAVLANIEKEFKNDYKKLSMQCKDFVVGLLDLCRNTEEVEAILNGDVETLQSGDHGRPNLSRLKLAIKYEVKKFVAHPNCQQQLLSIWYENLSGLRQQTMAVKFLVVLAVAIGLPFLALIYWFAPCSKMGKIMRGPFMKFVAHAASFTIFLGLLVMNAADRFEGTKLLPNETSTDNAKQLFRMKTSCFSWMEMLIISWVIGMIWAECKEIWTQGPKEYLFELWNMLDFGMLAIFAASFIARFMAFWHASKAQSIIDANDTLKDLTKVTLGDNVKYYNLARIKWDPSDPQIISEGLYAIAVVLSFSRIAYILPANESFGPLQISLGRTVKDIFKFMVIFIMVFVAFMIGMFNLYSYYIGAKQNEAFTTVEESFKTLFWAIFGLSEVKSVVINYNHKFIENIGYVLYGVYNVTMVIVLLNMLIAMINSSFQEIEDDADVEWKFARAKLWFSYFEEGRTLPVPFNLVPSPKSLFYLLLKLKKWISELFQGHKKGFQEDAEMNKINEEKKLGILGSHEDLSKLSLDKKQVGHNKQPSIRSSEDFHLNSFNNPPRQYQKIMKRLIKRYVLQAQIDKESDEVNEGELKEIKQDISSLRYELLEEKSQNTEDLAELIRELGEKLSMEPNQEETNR
The experiment is described as follows: Evaluation of TRPC6 channel inhibitory activity (1), FLIPR Calcium 5 Assay Kit, OAG stimulation (Compound Nos. 1-1293). It is filed as cell-based. Particulars: Human TRPC6 stably-expressing cells, OAG 30 μM, FLIPR Calcium 5 Assay Kit; read-out: Inhibitory activity (pIC50 class) (converted). How it is done:
Evaluation of TRPC6 Channel Inhibitory Activity (1) (Compound Nos. 1-1293)
In order to investigate TRPC6 channel inhibitory activity of the compounds, evaluation was conducted using FLIPR® Calcium 5 Assay Kit (Molecular Devices) in accordance with the following procedure. Human TRPC6 stably-expressing cells were seeded in a 384-well black clear bottom plate at a density of 5×10^3/well and cultured in an incubator at 37° C. 5% CO2 for 24 hours. Thereafter, 25 μL of a Non Wash Dye Solution, prepared using Component A, 20 mM HEPES-HBSS and 250 mM probenecid, all of which are included in the kit, was added to each well, and the plate was incubated for 30 minutes. A volume of 12.5 μL of a compound solution was added into each well while the fluorescence was measured with FLIPR tetra. After 20 minutes, 12.5 μL of a 1-oleoyl-2-acetyl glycerol (OAG) solution was added at a final concentration of 30 μM. The difference between the minimum fluorescence intensity before the addition of the compound and the maximum fluorescence intensity after the addition of OAG was defined as a signal. An inhibition rate was calculated, assuming the average signal of wells without the compound as the inhibition rate of 0% and the average signal of wells without the compound and OAG as the inhibition rate of 100%. The calculated inhibition rate was analyzed by a four-parameter logistic regression to quantify the inhibition rate in the logarithm of the inverse of the effective concentration which gives a 50% inhibition rate (pIC50). The intensity was expressed by the following symbols (+, ++, +++).
As to `Cc1nc(CN2CCCC2)cn1Cc1cc(C#N)ccc1-c1ncc(CCN)cn1` [compound 1175, 4-[5-(2-aminoethyl)pyrimidin-2-yl]-3-[[2-methyl-4-(pyrrolidin-1-ylmethyl)imidazol-1-yl]methyl]benzonitrile], the IC50 was more than 1000 nM. `N#Cc1ccc(-c2ccc(C(CN)C(F)(F)F)cc2)c(Oc2cnnc(N3CCOCC3)c2)c1` (stereo not drawn) [Compound 122, 4-[4-(3-amino-1,1,1-trifluoropropan-2-yl)phenyl]-3-(6-morpholin-4-ylpyridazin-4-yl)oxybenzonitrile]: the IC50 is 10 to 1000 nM. The result for `N#Cc1ccc(-c2ncc(CN)cn2)c(Oc2nnc(N3CC(F)C3)s2)c1` [compound 721, 4-[5-(aminomethyl)pyrimidin-2-yl]-3-[[5-(3-fluoroazetidin-1-yl)-1,3,4-thiadiazol-2-yl]oxy]benzonitrile] reads more than 1000 nM; that for `Cc1nc(-c2cc(Oc3cc(C#N)ccc3-c3ncc(CN)cn3)n(C)n2)cn1C` [compound 933, 4-[5-(aminomethyl)pyrimidin-2-yl]-3-[5-(1,2-dimethylimidazol-4-yl)-2-methylpyrazol-3-yl]oxybenzonitrile], more than 1000 nM. As for `Cc1nc(Oc2cc(C#N)ccc2-c2cnn(C3CCNCC3)c2)cc(N2CCOCC2)n1` [Compound 239, 3-(2-methyl-6-morpholin-4-ylpyrimidin-4-yl)oxy-4-(1-piperidin-4-ylpyrazol-4-yl)benzonitrile], the IC50 was more than 1000 nM.

For the molecule `Cc1nc(Oc2cc(C#N)ccc2-c2ccc(C(CN)c3ccoc3)cc2)cc(N2CCOCC2)n1` (stereo not drawn) [Compound 73, 4-[4-[2-amino-1-(furan-3-yl)ethyl]phenyl]-3-(2-methyl-6-morpholin-4-ylpyrimidin-4-yl)oxybenzonitrile], the IC50 is 10 to 1000 nM.

Turning to `Cc1nc(Oc2cc(C#N)ccc2-n2cc([C@H](O)CN)cn2)cc(-c2ccccc2C(F)(F)F)n1` [compound 355, 4-[4-[(1S)-2-amino-1-hydroxyethyl]pyrazol-1-yl]-3-[2-methyl-6-[2-(trifluoromethyl)phenyl]pyrimidin-4-yl]oxybenzonitrile], the IC50 is more than 1000 nM. The result for `Cc1nc(OCC2(C)CC2)cc(Oc2cc(C#N)ccc2-c2ccc(CCN)cc2)n1` [Compound 49, 4-[4-(2-aminoethyl)phenyl]-3-[2-methyl-6-[(1-methylcyclopropyl)methoxy]pyrimidin-4-yl]oxybenzonitrile] reads 10 to 1000 nM; that for `Cc1nc(Oc2cc(C#N)ccc2-c2ccc(C(CN)c3ccc(F)cc3)cc2)cc(N2CCOCC2)n1` (stereo not drawn) [Compound 60, 4-[4-[2-amino-1-(4-fluorophenyl)ethyl]phenyl]-3-(2-methyl-6-morpholin-4-ylpyrimidin-4-yl)oxybenzonitrile], 10 to 1000 nM.

For the molecule `CNC(=O)C(N)c1ccc(-c2ccc(C#N)cc2Oc2cc(C3CC3)nn2C)nc1` (stereo not drawn) [compound 491, 2-amino-2-[6-[4-cyano-2-(5-cyclopropyl-2-methylpyrazol-3-yl)oxyphenyl]pyridin-3-yl]-N-methylacetamide], the IC50 was 10 to 1000 nM. To `N#Cc1ccc(-c2ncc(CCN)cn2)c(C(=O)c2cnn(CC3CC3)c2)c1` [compound 1046, 4-[5-(2-aminoethyl)pyrimidin-2-yl]-3-[1-(cyclopropylmethyl)pyrazole-4-carbonyl]benzonitrile] belongs less than 10 nM; to `Cc1nc(Oc2cc(C#N)ccc2-c2ncc(CCN)cn2)cc(N(C)C2COC2)n1` [compound 879, 4-[5-(2-aminoethyl)pyrimidm-2-yl]-3-[2-methyl-6-[methyl(oxetan-3-yl)amino]pyrimidin-4-yl]oxybenzonitrile], more than 1000 nM. The result for `Cn1nc(N2CCCC2)cc1C(=O)c1cc(C#N)ccc1-c1ncc(CCN)cn1` [compound 1071, 4-[5-(2-aminoethyl)pyrimidin-2-yl]-3-(2-methyl-5-pyrrolidin-1-ylpyrazole-3-carbonyl)benzonitrile] reads less than 10 nM; that for `Cc1cccc(-c2cn(Cc3cc(C#N)ccc3-c3ccc(CCN)cn3)cn2)c1` [compound 1148, 4-[5-(2-aminoethyl)pyridin-2-yl]-3-[[4-(3-methylphenyl)imidazol-1-yl]methyl]benzonitrile], less than 10 nM.

With `Cn1nc(C2CCC2)cc1Oc1cc(C#N)ccc1-c1ncc(CCN)cn1` [Compound 272, 4-[5-(2-aminoethyl)pyrimidin-2-yl]-3-(5-cyclobutyl-2-methylpyrazol-3-yl)oxybenzonitrile], the IC50 was less than 10 nM. As to `Cc1nc(Oc2cc(C#N)ccc2-c2ccc(CCN)cc2)cc(-c2cscn2)n1` [Compound 30, 4-[4-(2-aminoethyl)phenyl]-3-[2-methyl-6-(1,3-thiazol-4-yl)pyrimidin-4-yl]oxybenzonitrile], the IC50 is less than 10 nM. The result for `CC(C)c1cn(Cc2cc(C#N)ccc2-c2ncc(CCN)cn2)nn1` [compound 1185, 4-[5-(2-aminoethyl)pyrimidin-2-yl]-3-[(4-propan-2-yltriazol-1-yl)methyl]benzonitrile] reads less than 10 nM. To `Cn1nc(-c2ccccc2)cc1Oc1cc(C#N)ccc1-c1ccc([C@H](O)CN)cn1` [compound 366, 4-[5-[(1S)-2-amino-1-hydroxyethyl]pyridin-2-yl]-3-(2-methyl-5-phenylpyrazol-3-yl)oxybenzonitrile] belongs less than 10 nM; to `N#Cc1ccc(-c2ncc(CCN)cn2)c(C(=O)c2cnn(C3CCC3)c2)c1` [compound 1057, 4-[5-(2-aminoethyl)pyrimidin-2-yl]-3-(1-cyclobutylpyrazole-4-carbonyl)benzonitrile], less than 10 nM; to `Cc1nc(Oc2cc(C#N)ccc2-c2csc(C(O)CN)n2)cc(N2CCOCC2)n1` (stereo not drawn) [Compound 168, 4-[2-(2-amino-1-hydroxyethyl)-1,3-thiazol-4-yl]-3-(2-methyl-6-morpholin-4-ylpyrimidin-4-yl)oxybenzonitrile], 10 to 1000 nM.

As to `Cc1nc(Oc2cc(C#N)ccc2-c2ccc(C(CN)c3cccc(F)c3)cc2)cc(N2CCOCC2)n1` (stereo not drawn) [Compound 61, 4-[4-[2-amino-1-(3-fluorophenyl)ethyl]phenyl]-3-(2-methyl-6-morpholin-4-ylpyrimidin-4-yl)oxybenzonitrile], the IC50 is more than 1000 nM.

Regarding `Cn1nc(C2CC2)cc1Oc1cc(C#N)ccc1-c1ccc(CCNCC#N)cn1` [Compound 286, 4-[5-[2-(cyanomethylamino)ethyl]pyridin-2-yl]-3-(5-cyclopropyl-2-methylpyrazol-3-yl)oxybenzonitrile], the IC50 was 10 to 1000 nM.

With `CC(C)COCc1cn(Cc2cc(C#N)ccc2-c2ccc(CCN)cc2)cn1` [compound 1119, 4-[4-(2-aminoethyl)phenyl]-3-[[4-(2-methylpropoxymethyl)imidazol-1-yl]methyl]benzonitrile], the IC50 is 10 to 1000 nM. On to `N#Cc1ccc(-c2ncc(CN)cn2)c(Oc2nnc(Br)s2)c1` [compound 700, 4-[5-(aminomethyl)pyrimidin-2-yl]-3-[(5-bromo-1,3,4-thiadiazol-2-yl)oxy]benzonitrile], for which the IC50 is more than 1000 nM. To `CCc1cc(Oc2cc(C#N)ccc2-c2ccc(CCN)cn2)n(C)n1` [Compound 288, 4-[5-(2-aminoethyl)pyridin-2-yl]-3-(5-ethyl-2-methylpyrazol-3-yl)oxybenzonitrile] belongs less than 10 nM; to `Cn1nc(-c2cccc(F)c2)cc1Oc1cc(C#N)ccc1-c1ccc([C@H](O)CN)cn1` [compound 403, 4-[5-[(1S)-2-amino-1-hydroxyethyl]pyridin-2-yl]-3-[5-(3-fluorophenyl)-2-methylpyrazol-3-yl]oxybenzonitrile], less than 10 nM; to `Cc1nc(C(F)(F)F)cn1Cc1cc(C#N)ccc1-c1ncc(CCN)cn1` [compound 1173, 4-[5-(2-aminoethyl)pyrimidin-2-yl]-3-[[2-methyl-4-(trifluoromethyl)imidazol-1-yl]methyl]benzonitrile], less than 10 nM.
